Results from US5593985A, “Cephalosporin compounds” (priority 1994, dated 1997).
≈ marks a conversion by molar mass, not a printed value. Where two headings read alike, the source gives them in different places.

Tests used:
Type in all cases: cell-based
Escherichia coli TEM = assay: MIC, standard strain 10; conditions: 18 h, read-out: Minimal Inhibitory Concentration(MIC)
Experimental: (§1) In order to illustrate antibiotic effectiveness of the compounds of the present invention, the minimal inhibitory concentrations (MIC's) of the representative compounds were determined against standard strains and compared with ceftazidime and cefpirome, which were used as control compounds.
(§2) The MIC values were taken by employing a two-fold dilution method: that is, two-fold serial dilutions of each of the test compounds were made from initial concentration of […]; each 1.5 ml of them was dispersed in 13.5 ml of Muller Hinton agar medium to adjust to […]; the standard test strain which had the concentration of 10^7 CFU/ml was inoculated by medium;and these were incubated at 37° C. for 18 hours.
(§3) The test used twenty kinds of standard test strains which induced urinary tract infections, respiratory organ infections, skin soft tissue infections, plasma infections, gastrointestinal infections, central nervous system infections, most of which produce β-lactamase.

[1] = test system: Staphylococcus aureus SG 511; assay: MIC, standard strain 4; conditions: SG511, S. aureus SG 511, two-fold dilution, Muller Hinton agar, 10^7 CFU/ml, 37° C., 18 hours, read-out: Minimal Inhibitory Concentration(MIC)
Experimental: as §1, §2
(§4) The test used twenty kinds of standard test strains which induced urinary tract infections, respiratory organ infections, skin soft tissue infections, plasma infections, gastrointestinal infections, central nervous system infections, most of which produce β-lactamase. The standard test strains used are as follows:
4. Staphylococcus aureus SG 511

Escherichia coli 0 55 = assay: MIC, standard strain 7; conditions: 055, E. coli 0 55, two-fold dilution, Muller Hinton agar, 10^7 CFU/ml, 37° C., 18 hours, read-out: Minimal Inhibitory Concentration(MIC)
Experimental: as §1, §2, §3

[2] = test system: Pseudomonas aeruginosa 1771M; assay: MIC, standard strain 15; conditions: 18 h, read-out: Minimal Inhibitory Concentration(MIC)
Experimental: as §1, §2, §4
15. Pseudomonas aeruginosa 1771M

[3] = test system: Staphylococcus aureus 285; assay: MIC, standard strain 5; conditions: read-out: Minimal Inhibitory Concentration(MIC)
Experimental: as §1, §2, §4
5. Staphylococcus aureus 285

Streptococcus faecium 8b = assay: MIC, standard strain 3; conditions: Enterococcus faecium, read-out: Minimal Inhibitory Concentration(MIC)
Experimental: as §1, §2, §4
3. Streptococcus faecium 8b

[4] = test system: Streptococcus pyogenes A 308; assay: MIC, standard strain 1; conditions: read-out: Minimal Inhibitory Concentration(MIC)
Experimental: as §1, §2, §4
1. Streptococcus pyogenes A 308

[5] = test system: Klebsiella aerogenes 1552 E; assay: MIC, standard strain 18; conditions: K. aerogenes 1552 E, two-fold dilution, Muller Hinton agar, 10^7 CFU/ml, 37° C., 18 hours, read-out: Minimal Inhibitory Concentration(MIC)
Experimental: as §1, §2, §4
18. Klebsiella aerogenes 1552 E

[6] = test system: Pseudomonas aeruginosa 9.027; assay: MIC, standard strain 12; conditions: Pseudomonas aeruginosa; P. aeruginosa 9.027; two-fold dilution, Muller Hinton agar, 10^7 CFU/ml, 37° C., 18 hours; read-out: Minimal Inhibitory Concentration(MIC)
Experimental: as §1, §2, §4
12. Pseudomonas aeruginosa 9.027

Escherichia coli 1507 E = assay: MIC, standard strain 11; conditions: E. coli 1507 E, two-fold dilution, Muller Hinton agar, 10^7 CFU/ml, 37° C., 18 hours, read-out: Minimal Inhibitory Concentration(MIC)
Experimental: as §1, §2, §3

[7] = test system: Staphylococcus aureus 503; assay: MIC, standard strain 6; conditions: read-out: Minimal Inhibitory Concentration(MIC)
Experimental: as §1, §2, §4
6. Staphylococcus aureus 503

[8] = test system: Pseudomonas aeruginosa 1592 E; assay: MIC, standard strain 13; conditions: P. aeruginosa 1592 E, two-fold dilution, Muller Hinton agar, 10^7 CFU/ml, 37° C., 18 hours, read-out: Minimal Inhibitory Concentration(MIC)
Experimental: as §1, §2, §4
13. Pseudomonas aeruginosa 1592 E

[9] = test system: Enterobacter cloacae P 99; assay: MIC, standard strain 19; conditions: P99, 18 h, read-out: Minimal Inhibitory Concentration(MIC)
Experimental: as §1, §2, §4
19. Enterobacter cloacae P 99

Salmonella typhimurium = assay: MIC, standard strain 16; conditions: Salmonella enterica; S. typhimurium; two-fold dilution, Muller Hinton agar, 10^7 CFU/ml, 37° C., 18 hours; read-out: Minimal Inhibitory Concentration(MIC)
Experimental: as §1, §2, §4
16. Salmonella typhimurium

[10] = test system: Enterobacter cloacae 1321 E; assay: MIC, standard strain 20; conditions: read-out: Minimal Inhibitory Concentration(MIC)
Experimental: as §1, §2, §4
20. Enterobacter cloacae 1321 E

Escherichia coli DC 0 = assay: MIC, standard strain 8; conditions: DC0, E. coli DC 0, two-fold dilution, Muller Hinton agar, 10^7 CFU/ml, 37° C., 18 hours, read-out: Minimal Inhibitory Concentration(MIC)
Experimental: as §1, §2, §3

[11] = test system: Pseudomonas aeruginosa 1771; assay: MIC, standard strain 14; conditions: Pseudomonas aeruginosa; P. aeruginosa 1771; two-fold dilution, Muller Hinton agar, 10^7 CFU/ml, 37° C., 18 hours; read-out: Minimal Inhibitory Concentration(MIC)
Experimental: as §1, §2, §4
14. Pseudomonas aeruginosa 1771

[12] = test system: Streptococcus pyogenes A 77; assay: MIC, standard strain 2; conditions: A77, S. pyogenes A 77, two-fold dilution, Muller Hinton agar, 10^7 CFU/ml, 37° C., 18 hours, read-out: Minimal Inhibitory Concentration(MIC)
Experimental: as §1, §2, §4
2. Streptococcus pyogenes A 77

Escherichia coli DC 2 = assay: MIC, standard strain 9; conditions: DC2, E. coli DC 2, two-fold dilution, Muller Hinton agar, 10^7 CFU/ml, 37° C., 18 hours, read-out: Minimal Inhibitory Concentration(MIC)
Experimental: as §1, §2, §3

[13] = S. faecium 8b, two-fold dilution, Muller Hinton agar, 10^7 CFU/ml, 37° C., 18 hours
[14] = Staphylococcus aureus, S. aureus 503, two-fold dilution, Muller Hinton agar, 10^7 CFU/ml, 37° C., 18 hours
[15] = E. cloacae 1321 E, two-fold dilution, Muller Hinton agar, 10^7 CFU/ml, 37° C., 18 hours
[16] = Staphylococcus aureus, S. aureus 285, two-fold dilution, Muller Hinton agar, 10^7 CFU/ml, 37° C., 18 hours
[17] = A308, S. pyogenes A 308, two-fold dilution, Muller Hinton agar, 10^7 CFU/ml, 37° C., 18 hours

Compound | MIC (Escherichia coli TEM) [µg/mL] | MIC [1] [µg/mL] | MIC (Escherichia coli 0 55) [µg/mL] | MIC [2] [µg/mL] | MIC (Streptococcus faecium 8b; [13]) [µg/mL] | MIC ([4]; A308, 18 h) [µg/mL] | MIC [5] [µg/mL] | MIC [6] [µg/mL] | MIC (Escherichia coli 1507 E) [µg/mL] | MIC [7, 14] [µg/mL] | MIC [8] [µg/mL] | MIC [9] [µg/mL] | MIC (Salmonella typhimurium) [µg/mL] | MIC [10, 15] [µg/mL] | MIC (Escherichia coli DC 0) [µg/mL] | MIC [11] [µg/mL] | MIC [12] [µg/mL] | MIC (Escherichia coli DC 2) [µg/mL] | MIC [3, 16] [µg/mL] | MIC [4, 17] [µg/mL] | also measured
CCOC(=O)c1cc[n+](CC2=C(C(=O)[O-])N3C(=O)[C@@H](NC(=O)/C(=N\OC)c4csc(N)n4)[C@H]3SC2)c2c1CCC2 [Example 1] | 391 (≈ 666 µM) | 1560 (≈ 2660 µM) | 49 (≈ 83.5 µM) | 391 (≈ 666 µM) | 25000 (≈ 42600 µM) | 7 (≈ 11.9 µM) | 49 (≈ 83.5 µM) | 12500 (≈ 21300 µM) | 49 (≈ 83.5 µM) | 781 (≈ 1330 µM) | 12500 (≈ 21300 µM) | 25000 (≈ 42600 µM) | 49 (≈ 83.5 µM) | 25 (≈ 42.6 µM) | 49 (≈ 83.5 µM) | 6250 (≈ 10700 µM) | 7 (≈ 11.9 µM) | 25 (≈ 42.6 µM) | – | – | MIC ([3]; Staphylococcus aureus, 285, 18 h): 3120 µg/mL (≈ 5330 µM)
CO/N=C(\C(=O)N[C@@H]1C(=O)N2C(C(=O)[O-])=C(C[n+]3ccc(C(=O)O)c4c3CCC4)CS[C@H]12)c1csc(N)n1 [Example 2] | 781 (≈ 1400 µM) | 6250 (≈ 11200 µM) | 25 (≈ 44.8 µM) | 391 (≈ 700 µM) | 25000 (≈ 44800 µM) | – | 25 (≈ 44.8 µM) | 12500 (≈ 22400 µM) | 25 (≈ 44.8 µM) | 3120 (≈ 5590 µM) | 12500 (≈ 22400 µM) | 100000 (≈ 179000 µM) | 49 (≈ 87.7 µM) | 25 (≈ 44.8 µM) | 49 (≈ 87.7 µM) | 3120 (≈ 5590 µM) | 7 (≈ 12.5 µM) | 49 (≈ 87.7 µM) | 6250 (≈ 11200 µM) | 25 (≈ 44.8 µM) | –
CCO/N=C(\C(=O)N[C@@H]1C(=O)N2C(C(=O)[O-])=C(C[n+]3ccc(C(N)=O)c4c3CCC4)CS[C@H]12)c1csc(N)n1 [Example 13, 7-β-[(Z)-2-(2-aminothiazol-4-yl)-2-ethoxyiminoacetamido]-3-[(2,3-cyclopenteno-4-carbamoyl-1-pyridinium)methyl]-3-cephem-4-carboxylate] | 195 (≈ 341 µM) | 781 (≈ 1370 µM) | 25 (≈ 43.7 µM) | 195 (≈ 341 µM) | 50000 (≈ 87500 µM) | 13 (≈ 22.7 µM) | 49 (≈ 85.7 µM) | 6250 (≈ 10900 µM) | 98 (≈ 171 µM) | 391 (≈ 684 µM) | 3120 (≈ 5470 µM) | 12500 (≈ 21900 µM) | 49 (≈ 85.7 µM) | 25 (≈ 43.7 µM) | 98 (≈ 171 µM) | 1560 (≈ 2730 µM) | 4 (≈ 7 µM) | 49 (≈ 85.7 µM) | 3120 (≈ 5470 µM) | – | –
NC(=O)c1cc[n+](CC2=C(C(=O)[O-])N3C(=O)[C@@H](NC(=O)/C(=N\OCCF)c4csc(N)n4)[C@H]3SC2)c2c1CCC2 [Example 14, 7-β-[(Z)-2-(2-aminothiazol-4-yl)-2-(2-fluoroethoxyimino)acetamido]-3-[(2,3-cyclopenteno-4-carbamoyl-l-pyridinium)methyl]-3-cephem-4-carboxylate] | 98 (≈ 166 µM) | 781 (≈ 1320 µM) | 13 (≈ 22 µM) | 391 (≈ 663 µM) | 25000 (≈ 42400 µM) | – | 49 (≈ 83.1 µM) | 6250 (≈ 10600 µM) | 49 (≈ 83.1 µM) | 781 (≈ 1320 µM) | 6250 (≈ 10600 µM) | 12500 (≈ 21200 µM) | 49 (≈ 83.1 µM) | – | 49 (≈ 83.1 µM) | 781 (≈ 1320 µM) | 13 (≈ 22 µM) | 49 (≈ 83.1 µM) | 3120 (≈ 5300 µM) | 13 (≈ 22 µM) | MIC ([10]; 1321E, 18 h): 25 µg/mL (≈ 42.4 µM)
CO/N=C(\C(=O)N[C@@H]1C(=O)N2C(C(=O)[O-])=C(C[n+]3ccc(NC(C)=O)c4c3CCC4)CS[C@H]12)c1csc(N)n1 [Example 17, 7-β-[(Z)-2-(2-aminothiazol-4-yl)-2-methoxyiminoacetamido]-3-[(4-acetamido-2,3-cyclopenteno-1-pyridinium)methyl]-3-cephem-4-carboxylate] | 25 (≈ 43.7 µM) | 781 (≈ 1370 µM) | 25 (≈ 43.7 µM) | 1560 (≈ 2730 µM) | – | < 2 | 13 (≈ 22.7 µM) | 12500 (≈ 21900 µM) | 25 (≈ 43.7 µM) | – | 6250 (≈ 10900 µM) | 12500 (≈ 21900 µM) | 49 (≈ 85.7 µM) | 13 (≈ 22.7 µM) | 13 (≈ 22.7 µM) | 6250 (≈ 10900 µM) | < 2 | 13 (≈ 22.7 µM) | 1560 (≈ 2730 µM) | – | MIC (Streptococcus faecium 8b; 8B, 18 h): 100000 µg/mL (≈ 175000 µM); MIC ([7]; Staphylococcus aureus, 503, 18 h): 195 µg/mL (≈ 341 µM)
CO/N=C(\C(=O)N[C@@H]1C(=O)N2C(C(=O)[O-])=C(C[n+]3ccc(NC=O)c4c3CCC4)CS[C@H]12)c1csc(N)n1 [Example 19] | 49 (≈ 87.9 µM) | 391 (≈ 701 µM) | 7 (≈ 12.6 µM) | 1560 (≈ 2800 µM) | 25000 (≈ 44800 µM) | – | 49 (≈ 87.9 µM) | 12500 (≈ 22400 µM) | 98 (≈ 176 µM) | 98 (≈ 176 µM) | 12500 (≈ 22400 µM) | 12500 (≈ 22400 µM) | 195 (≈ 350 µM) | 7 (≈ 12.6 µM) | 13 (≈ 23.3 µM) | 12500 (≈ 22400 µM) | < 2 | 13 (≈ 23.3 µM) | 391 (≈ 701 µM) | < 2 | –
